This is an account of results in patent US10294202B2, “Pyrrolidinones as herbicides” (FMC Corporation, priority 2013, dated 2019).

Structures are written as SMILES.

The test system of one assay is ragweed. As to the kind of experiment: Test E preemergence herbicide test. Format: in vivo, Ambrosia elatior. More on the design: key: 0 = no effect, 100 = complete control. The source says:
(§1) Seeds of plant species selected from corn (Zea mays), soybean (Glycine max), velvetleaf (Abutilon theophrasti), lambsquarters (Chenopodium album), wild poinsettia (Euphorbia heterophylla), pigweed, palmer (palmer pigweed, Amaranthus palmeri), waterhemp (common waterhemp, Amaranthus rudis), surinam grass (Brachiaria decumbens), crabgrass, large (large crabgrass, Digitaria sanguinalis), crabgrass, Brazil (Brazilian crabgrass, Digitaria horizontalis), panicum, fall (fall panicum, Panicum dichotomiflorum), foxtail, giant (giant foxtail, Setaria faberii), foxtail, green (green foxtail, Setaria viridis), goosegrass (Eleusine indica), johnsongrass (Sorghum halepense), ragweed (common ragweed, Ambrosia elatior), barnyardgrass (Echinochloa crus-galli), sandbur (southern sandbur, Cenchrus echinatus), arrowleaf […] rhombifolia), ryegrass, Italian (Italian ryegrass, Lolium multiflorum), dayflower, VA (Virginia dayflower, Commelina virginica), field bindweed (Convolvulus arvensis), morningglory (Ipomoea coccinea), nightshade (eastern black nightshade, Solanum ptycanthum), kochia (Kochia scoparia), nutsedge, yellow (yellow nutsedge, Cyperus esculentus), cocklebur (common cocklebur, Xanthium strumarium), smartweed (ladysthumb smartweed, Polygonum Persicaria) and beggarticks (hairy beggarticks, Bidens pilosa), were planted into a silt loam soil and treated preemergence with test chemicals formulated in a non-phytotoxic solvent mixture which included a surfactant. Treated plants and controls were maintained in a greenhouse for 21 days, after which time all species were compared to controls and visually evaluated. Plant response ratings, summarized in Table E, are based on a scale of 0 to 100 where 0 is no effect and 100 is complete control. A dash (-) response means no test result.

A further assay relates to field bindweed. As to the kind of experiment: Test E preemergence herbicide test. The class given is in vivo, Convolvulus arvensis. More on the design: key: 0 = no effect, 100 = complete control.
From the text: as §1

In another assay the test system is pigweed, palmer. Briefly: Test E preemergence herbicide test. Format: in vivo, Amaranthus palmeri. More on the design: key: 0 = no effect, 100 = complete control.
From the text: as §1

A further assay deals with blackgrass. As to the kind of experiment: Test D pre-/postemergence herbicide test. The class given is in vivo, Alopecurus myosuroides. Particulars: for Plant response rating: Blackgrass, scale 0 to 100; for Plant response rating, Blackgrass: scale 0 to 100 (0 no effect, 100 complete control). The procedure, abridged:
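Visual 0–100 ratings (0 = no effect, 100 = complete control) versus controls, made 7 to 21 days after treatment in a controlled growth environment. Test chemicals in surfactant-containing non-phytotoxic solvent were applied preemergence to silt loam-sown seeds and postemergence to plants 2–18 cm tall.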

For another assay, the system named is field violet. Briefly: Test D pre-/postemergence herbicide test. Format: in vivo, Viola arvensis. The following applies: for Plant response rating: Field Violet, scale 0 to 100; for Plant response rating, Field Violet: scale 0 to 100 (0 no effect, 100 complete control). An excerpt:
Seeds of plant species selected from bluegrass (annual bluegrass, Poa annua), blackgrass (Alopecurus myosuroides), canarygrass (littleseed canarygrass, Phalaris minor), chickweed (common chickweed, Stellaria media), galium (catchweed bedstraw, Galium aparine), bromegrass, downy (downy bromegrass, Bromus tectorum), field poppy (Papaver rhoeas), field violet (Viola arvensis), foxtail, green (green foxtail, Setaria viridis), deadnettle (henbit deadnettle, Lamium amplexicaule), ryegrass, Italian (Italian ryegrass, Lolium multiflorum), kochia (Kochia scoparia), lambsquarters (Chenopodium album), oilseed rape (Brassica napus), pigweed (Amaranthus retroflexus), chamomile (scentless chamomile, Matricaria inodora), Russian thistle (Salsola kali), speedwell (bird's-eye speedwell, Veronica persica), barley, spring (spring barley, Hordeum vulgare), wheat, spring (spring wheat, Triticum aestivum), buckwheat, wild (wild buckwheat, Polygonum convolvulus), mustard, wild (wild mustard, Sinapis arvensis), oat, wild (wild oat, Avena fatua), radish, wild (wild radish, Raphanus raphanistrum), […]), barley, winter (winter barley, Hordeum vulgare), and wheat, winter (winter wheat, Triticum aestivum) were planted into a silt loam soil and treated preemergence with test chemicals formulated in a non-phytotoxic solvent mixture which included a surfactant. At the same time, these species were planted in pots containing Redi-Earth® planting medium (Scotts Company, 14111 Scottslawn Road, Marysville, Ohio 43041) comprising spaghnum peat moss, vermiculite, wetting agent and starter nutrients and treated with postemergence applications of the test chemicals formulated in the same manner. Plants ranged in height from 2 to 18 cm (1- to 4-leaf stage). Treated plants and controls were maintained in a controlled growth environment for 7 to 21 days after which time all species were compared to controls and visually evaluated. Plant response ratings, summarized in Table D, are based on a scale of 0 to 100 where 0 is no effect and 100 is complete control. A dash (-) response means no test result.

Turning to `O=C1NCC(c2ccc(Cl)c(Cl)c2)C1C(=O)Nc1ccccc1F` (racemic) [Compound 14], the “Plant response rating, Ragweed” value with ragweed (16 g ai/ha), with ragweed (31 g ai/ha), with ragweed (62 g ai/ha), in the assay on ragweed (125 g ai/ha) and in the assay with ragweed (250 g ai/ha) was 0 in each case. Also, the “Plant response rating, Field Bindweed” value in the assay on field bindweed (16 g ai/ha), in the assay with field bindweed (31 g ai/ha), in the assay on field bindweed (62 g ai/ha), with field bindweed (125 g ai/ha) and in the assay with field bindweed (250 g ai/ha) was 0 each time. Besides, the “Plant response rating, Pigweed, Palmer” value came out at 0 with pigweed, palmer (16 g ai/ha); 0 in the assay on pigweed, palmer (31 g ai/ha); 0 with pigweed, palmer (62 g ai/ha); 0 in the assay with pigweed, palmer (125 g ai/ha); 0 with pigweed, palmer (250 g ai/ha).

For the compound `O=C1NCC(c2ccc(C(F)(F)F)cc2)C1C(=O)Nc1cccc(F)c1F` (racemic) [Compound 202], the “Plant response rating, Ragweed” value is given as 20 with ragweed (31 g ai/ha), 80 with ragweed (62 g ai/ha), 85 in the assay with ragweed (125 g ai/ha) and 90 in the assay with ragweed (250 g ai/ha). In addition, the Plant response rating in the assay with blackgrass (Postemergence, 31 g ai/ha) was 0; with blackgrass (Postemergence, 62 g ai/ha), 5; in the assay on blackgrass (Postemergence, 125 g ai/ha), 10; with blackgrass (Postemergence, 250 g ai/ha) it was 40; with blackgrass (Preemergence, 125 g ai/ha), 65; in the assay with blackgrass (Preemergence, 250 g ai/ha), 75. The Plant response rating in the assay on field violet (Postemergence, 31 g ai/ha) came out at 40; with field violet (Postemergence, 62 g ai/ha), 30; with field violet (Postemergence, 125 g ai/ha), 30; in the assay with field violet (Postemergence, 250 g ai/ha), 30; with field violet (Preemergence, 125 g ai/ha) it was 10; in the assay on field violet (Preemergence, 250 g ai/ha) it was 15. In addition, the “Plant response rating, Blackgrass” value amounted to 35 in the assay on blackgrass (Preemergence, 62 g ai/ha) and 30 in the assay on blackgrass (Preemergence, 31 g ai/ha). For the same compound, the “Plant response rating, Field Bindweed” value in the assay with field bindweed (31 g ai/ha) is listed as 60; in the assay on field bindweed (62 g ai/ha) it was 40; with field bindweed (125 g ai/ha), 50; with field bindweed (250 g ai/ha), 70. For the same compound, the “Plant response rating, Field Violet” value with field violet (Preemergence, 62 g ai/ha) is 0; in the assay on field violet (Preemergence, 31 g ai/ha), 0. Also, the “Plant response rating, Pigweed, Palmer” value came to 0 in the assay on pigweed, palmer (31 g ai/ha); 70 in the assay with pigweed, palmer (62 g ai/ha); 85 in the assay on pigweed, palmer (125 g ai/ha); 80 in the assay with pigweed, palmer (250 g ai/ha).

Turning to `O=C1NCC(c2ccc(OC(F)F)cc2)C1C(=O)Nc1cccc(F)c1F` (racemic) [Compound 350], the “Plant response rating, Ragweed” value in the assay on ragweed (31 g ai/ha) was found to be 0; in the assay with ragweed (62 g ai/ha), 0; in the assay on ragweed (125 g ai/ha), 60; with ragweed (250 g ai/ha), 65. Besides, the “Plant response rating, Field Bindweed” value is given as 40 in the assay with field bindweed (31 g ai/ha), 60 in the assay on field bindweed (62 g ai/ha), 65 in the assay with field bindweed (125 g ai/ha) and 60 in the assay on field bindweed (250 g ai/ha). For the same compound, the “Plant response rating, Pigweed, Palmer” value is given as 0 in the assay on pigweed, palmer (31 g ai/ha); 0 in the assay with pigweed, palmer (62 g ai/ha); 35 in the assay with pigweed, palmer (125 g ai/ha); 35 in the assay on pigweed, palmer (250 g ai/ha).

In the case of `O=C1NCC(c2ccc(C(F)(F)F)cc2)C1C(=O)Nc1cccc(F)c1F` (stereo not shown) [Compound 80, N-(2,3-difluorophenyl)-2-oxo-4-[4-(trifluoromethyl)phenyl]-3-pyrrolidinecarboxamide], the “Plant response rating, Ragweed” value came to 0 with ragweed (16 g ai/ha); 0 with ragweed (31 g ai/ha); 0 in the assay with ragweed (62 g ai/ha); 0 with ragweed (125 g ai/ha); 20 with ragweed (250 g ai/ha). For the same compound, the Plant response rating was determined as 5 in the assay with blackgrass (Postemergence, 31 g ai/ha); 5 in the assay with blackgrass (Postemergence, 62 g ai/ha); 5 in the assay with blackgrass (Postemergence, 125 g ai/ha); 5 in the assay with blackgrass (Postemergence, 250 g ai/ha); 20 with blackgrass (Preemergence, 125 g ai/ha); 25 with blackgrass (Preemergence, 250 g ai/ha). Besides, the Plant response rating in the assay on field violet (Postemergence, 31 g ai/ha) is reported as 15; in the assay on field violet (Postemergence, 62 g ai/ha) it was 20; in the assay with field violet (Postemergence, 125 g ai/ha) it was 15; in the assay with field violet (Postemergence, 250 g ai/ha), 25; in the assay with field violet (Preemergence, 125 g ai/ha) it was 20; in the assay with field violet (Preemergence, 250 g ai/ha) it was 25. The “Plant response rating, Blackgrass” value came to 10 in the assay on blackgrass (Preemergence, 62 g ai/ha) and 5 with blackgrass (Preemergence, 31 g ai/ha). For the same compound, the “Plant response rating, Field Bindweed” value in the assay on field bindweed (16 g ai/ha), in the assay on field bindweed (31 g ai/ha), with field bindweed (62 g ai/ha), in the assay on field bindweed (125 g ai/ha) and in the assay on field bindweed (250 g ai/ha) was 0 in each case. Moreover, the “Plant response rating, Field Violet” value in the assay with field violet (Preemergence, 62 g ai/ha) is reported as 20; in the assay with field violet (Preemergence, 31 g ai/ha) it was 0. For the same compound, the “Plant response rating, Pigweed, Palmer” value with pigweed, palmer (16 g ai/ha) turned out to be 0; in the assay on pigweed, palmer (31 g ai/ha), 0; in the assay on pigweed, palmer (125 g ai/ha) it was 65; in the assay on pigweed, palmer (250 g ai/ha), 90.
